Test results taken from patent US7842683B2, “Neurotherapeutic compositions and method” (Revaax Pharmaceuticals, LLC, priority 1999, dated 2010).

Key:
[1] = test system: rats; assay: Morris water maze, spatial navigation; assay type: in vivo, rat
Source text: The Morris water maze like the radial arm maze was developed to test spatial memory (Morris, 1984). The pool is divided into quadrants usually designated North, South, East and West. The water in the pool is made opaque with milk powder. Hidden just beneath the surface in one of the quadrants is a platform that serves as a escape route for rodents placed into the pool. An animal is placed some where in the pool from a variety of different start points and is timed for latency to find the platform, percent time spent in each quadrant, distance traveled and swimming speed. The animals has no visual or spatial cues in the pool and must rely on extra-maze cues, i.e., objects set up outside the pool that can be seen by the swimming animal. Through a series of trials a rat develops “place learning” or knowledge about the position of the platform based upon the extra-maze cues. The platform can be moved to a different quadrant each day combining spatial memory with working memory. This paradigm involves extinction of the prior memory and resolution of a new spatial problem.
The water maze consisted of a black plastic circular pool ca. 150 cm in diameter and 54 cm in height filled to a level of 35 cm with water made opaque with powdered milk. The pool was divided into four quadrants with a platform 10 cm in diameter submerged 2 cm below the surface in the northwest quadrant. The water was maintained at a temperature of 25° C. Around the pool were several visual cues. Above the pool was a video camera for tracking the movement of the experimental animal. The data collection was completely automated using the software developed by HVS Image (Hampton, UK). Before testing, rats were familiarized with the pool and platform placed in the northwest quadrant. Each day for 4 consecutive days, animals were placed into pool at random sites and given two min to find the platform. Animals were treated one hr before testing with 50 μg/kg Mox (n=11) or vehicle (n=10). Following these familiarization trials, animals were tested for spatial navigation. The first day of testing began with the platform in the expected northwest quadrant. All behavior was videotaped for a two min observation period. After testing the animal were dried off and placed back into their home cage. On each subsequent day the platform was moved to a new quadrant and the rat started at different positions. The rat was always placed into the pool facing the side wall. The start positions relative to the platform were different for each of the four trials; however, the platform was always in the same relative position in each quadrant. Twenty cm in from the side of the pool and in the left corner from the center facing out.
The Morris water maze was developed to test spatial memory (Morris, 1984). The pool is divided into quadrants usually designated North, South, East and West. The water in the pool is made opaque with milk powder. Hidden just beneath the surface in one of the quadrants is a platform that serves as a escape route for rodents placed into the pool. An animal is placed some where in the pool from a variety of different start points and is timed for latency to find the platform, percent time spent in each quadrant, distance traveled and swimming speed. The animals have no visual or spatial cues in the pool and must rely on extra-maze cues, i.e., objects set up outside the pool that can be seen by the swimming animal. Through a series of trials a rat develops “place learning” or knowledge about the position of the platform based upon the extra-maze cues. The platform can be moved to a different quadrant each day combining spatial memory with working memory. This paradigm involves extinction of the prior memory and resolution of a new spatial problem.
The water maze consisted of a black plastic circular pool ca. 150 cm in diameter and 54 cm in height filled to a level of 35 cm with water made opaque with powdered milk. […]

[2] = Estimated fluid and brain concentrations after dosing hamsters; assay type: in vivo, hamster
Experimental: The adult male hamsters used in these studies weighed around 125 g. […] CLAV has a volume of distribution approximating the extracellular fluid volume. The extracellular water content of lean body mass is approximately 22%.
To this end, animals were treated with N-acetyl-beta-aspartyl-glutamic acid (beta-NAAG), a competitive inhibitor of NAALADase (Serval et al., 1992) and tested in the seed finding model of anxiety. The study was similar to that outlined in Section I with one notable exception. […] Beta-NAAG (FW 304) was given in a dose of 3 ng in a volume of 1 μl saline ICV. The average adult hamster brain weights ca. 1.2 g of which 22% is extracellular fluid.

[3] = test system: bacteria; settings: cited from earlier work
[4] = test system: adolescent male rhesus macaques; assay: Social behavior in non-human primates; assay type: in vivo; settings: 1 mg/kg IM
Experimental: Eight, two year old adolescent male rhesus macaques were tested with Mox. Animals were raised with their mothers in a group setting at a field station. At one year of age, they were transferred to individual cages. Each day thereafter, they were paired housed for two-three hrs. The adolescent partners were always the same. […] The display of social behaviors in this arrangement are very robust because of the limited amount of time the monkeys spend together. During the experiment the monkeys were paired in the “play-cage” where they were video taped for one hour. The study was designed so that behavioral data were obtained for each monkey under Mox and vehicle treatment. The treatment was an ABA type schedule of administration: Day 1—one member of each pair received 0.9% NaCl vehicle, Day 2—drug, Day 3—vehicle. Only one member of a pair was injected on a test day. The other member of a pair was injected a week later according to the same ABA schedule. […] Animals were video taped sixty minutes after injection for a one hr observation period. Animals were scored for over forty different behaviors (Winslow et al., 1988). Only twenty-eight are listed on TABLE I. The unreported behaviors, e.g., self-bites, vocalizations, clinging, mounts, escapes, self grooming were so infrequent that they were omitted from the analysis. Paired t-test was run for each behavioral measure.

[5] = test system: hamsters; assay: Olfactory discrimination: latency to find hidden sunflower seeds; assay type: in vivo, Syrian golden hamsters (Mesocricetus auratus); settings: 50 μg/kg
Experimental: Sixteen animals were treated with vehicle or 50 μg/kg Mox and tested for olfactory discrimination by measuring their latency to find hidden sunflower seeds (FIG. 5). The injections were counterbalanced with each animal receiving each treatment. Prior to testing animals were fasted for 24 hrs. Ninety minutes after injection animals were briefly taken from their home cage while six sunflower seeds were buried under the bedding in one corner. Animals were placed back into their home cage and scored for the latency to find the seeds in a ten min observation period. […] In fact, not one of the sixteen animals consumed all of the seeds following saline as compared to all animals treated with Mox.
Six animals received an intracerebroventricular injection of vehicle or 1 mg/kg PPP and tested for olfactory discrimination by measuring their latency to find hidden sunflower seeds (FIG. 16). The injections were counterbalanced with each animal receiving each treatment. Prior to testing animals were fasted for 24 hrs. Sixty min. After injection animals were briefly taken from their home cage while six sunflower seeds were buried under the bedding in one corner. Animals were placed back into their home cage and scored for the latency to find the seeds in a five min. Observation period.

[6] = 140 g hamster, IP injection of 14 μg

With `O=C(O)[C@H]1/C(=C/CO)O[C@@H]2CC(=O)N21` [CLAV, Clavulanic acid] the “percentage of time spent in each quadrant” value ([1]; CLAV 1.0 μg/kg) was “no significant difference between treatments”, the swim rate ([1]; CLAV 1.0 μg/kg) was “no significant difference” and the “latency to find the platform, main effect” value ([1]; CLAV 1.0 μg/kg one hr before testing) was “no main effect for drug treatment”. For the same compound, the “path length to find the platform” value ([1]; CLAV 1.0 μg/kg, Day 1) was “much shorter distance”, the “time spent in the correct (South) quadrant” value ([1]; CLAV 1.0 μg/kg, Day 2) was “over 50%” and the “latency to find the platform” value ([1]; CLAV 1.0 μg/kg, Days 1 and 4, trend towards significance) was “shorter latencies”. The “estimated concentration in extracellular water” value ([2]; CLAV 1.25 ng in 27.5 ml of water (10 ng/kg, 125 g hamster)) was 0.045 ng/mL, the “estimated concentration in the brain” value ([2]; CLAV 10 ng/kg, CSF/plasma ratio 0.25) was “around 50 μM” and the “estimated concentration in extracellular water (molar)” value ([2]; CLAV 10 ng/kg, formula weight ca. 240) was “about 200 μM”. The antibacterial activity [3] was “weak antibacterial activity”.
In the case of `CO[C@@]1(NC(=O)C(C(=O)O)c2ccc(O)cc2)C(=O)N2C(C(=O)O)=C(CSc3nnnn3C)CO[C@@H]21` (stereo partly drawn) [Mox, 7-β-[2-carboxy-2-(4-hydroxyphenyl)acetamido]-7α-methoxy-3-[[(1-methyl-1H-tetrazol-5-yl)thio]methyl]-1-oxa-1-dethia-3-cephem-4-carboxylic acid], the “distance covered to reach the platform” value ([1]; Mox 50 μg/kg) is reported as “not significantly different”, the “percentage of time spent in each quadrant” value ([1]; Mox 50 μg/kg) is reported as “no significant difference between treatments” and the swim speed ([1]; Mox 50 μg/kg) is reported as “significantly greater swim speed”. For the same compound, the “latency to find the hidden platform” value ([1]; Mox 50 μg/kg one hr before testing, days two, three and four) was “significantly shorter latencies”, the “swim speed relative to vehicle” value ([1]; Mox 50 μg/kg, Day 2) was “almost twice the speed” and the allogrooming [4] was “no effect”. For the same compound, the “duration of play fighting” value ([4]; sixty minutes after injection, one hr observation) was “significantly reduced”, the “estimated CSF concentration” value [2, 6] was 15 ng/mL and the estimated serum concentration [2, 6] was 0.1 ng/mL. For the same compound, the “estimated (effective minimum) concentration of moxalactam in the brain” value ([2]; following 50 μg/kg, listed as moxalactam) was “about 30 nM”, the “time to consume all seeds” value [5] was “less than five” and the “latency to find the seed” value ([5]; 90 min, fasted 24 hrs) was “significantly (p<0.001) reduced”.
